The values that follow come from patent US5543496A, “Cyclic bradykinin antagonist peptides” (Scios Nova Inc., priority 1994, dated 1996).

Positions of bridges follow the written chain, without caps; N, C: chain ends. Non-standard residues stand in square brackets, D forms with d. Residues, ends and D or L forms follow the SMILES beside them. Oic = O=C(O)[C@@H]1C[C@@H]2CCCC[C@@H]2N1; dTic = O=C(O)[C@H]1Cc2ccccc2CN1

For data set [1] the following is noted: cited from earlier work.
For data set [2] the following is noted: anesthetized rat, intra-aortic vs intravenous administration; cited from earlier work.
The target in data set [3] is T1, bradykinin receptors on intestinal (ileal longitudinal) smooth muscle (Cavia porcellus, UniProt O70526).
T1 construct: The longitudinal muscle was separated from the underlying circular muscle; from tissue; host or cells: guinea pig ileal longitudinal smooth muscle strips in tissue bath
T1 sequence (O70526 1-372): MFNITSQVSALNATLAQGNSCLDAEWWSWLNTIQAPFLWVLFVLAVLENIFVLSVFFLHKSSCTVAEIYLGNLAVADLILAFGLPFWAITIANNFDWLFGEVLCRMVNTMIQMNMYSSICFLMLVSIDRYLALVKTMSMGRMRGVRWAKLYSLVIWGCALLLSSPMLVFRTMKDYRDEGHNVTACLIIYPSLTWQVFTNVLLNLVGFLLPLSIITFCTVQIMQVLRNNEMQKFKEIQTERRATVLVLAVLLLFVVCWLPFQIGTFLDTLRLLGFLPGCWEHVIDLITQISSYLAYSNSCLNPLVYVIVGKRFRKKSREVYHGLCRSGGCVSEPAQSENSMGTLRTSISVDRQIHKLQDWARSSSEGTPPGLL
Briefly: Bradykinin antagonist activity on guinea pig ileal longitudinal smooth muscle (Schild analysis). Format: cell-based. The conditions noted are these: antagonism of bradykinin-induced contraction, 5 min exposure, read-out: pA2 (converted). The procedure:
Guinea pig intestine was removed and placed in a Petri dish containing Tyrodes solution and cut into 3-4 cm segments. The longitudinal muscle was separated from the underlying circular muscle using a cotton applicator (Paton and Zar, J. Physiol., (1968), 194:13. Muscle strips were connected to isometric force-displacement transducers (Grass or Gould) coupled to a physiograph and placed in tissue baths containing Tyrode's solution at 37° C. Each preparation was suspended under a resting tension of 2 g.
After equilibration of the tissues, appropriate volumes of bradykinin solutions were cumulatively added to the 10 mL tissue baths to increase the concentration of bradykinin in the bath step-by-step without washing out after each single dose. Higher concentrations were added only after the preceding contraction had reached a steady value. […] Antagonism of badykinin responses in the presence of antagonist were determined by repeating the cumulative addition procedure for bradykinin after the tissue has been exposed to the antagonist for 5 minutes. Three or four different concentrations of antagonist are studied sequentially in the same preparations. Responses were expressed as a percentage of the maximum contraction elicited by bradykinin in the absence of antagonist. pA2 values were calculated by Schild analysis.

The target in data set [4] is T2, bradykinin receptor (Cavia porcellus, UniProt O70526).
T2 construct: from tissue; host or cells: guinea pig terminal ileum, washed membrane homogenate
T2 sequence (O70526 1-372): T1 sequence (O70526 1-372)
Briefly: 3H-Bradykinin binding assay, guinea pig ileum membranes. To be noted: displacement of 3H-bradykinin, terminal ileum homogenate of male Hartley guinea pigs, 90 min ambient temperature. The procedure: Binding of ^3 H-Bradykinin was performed using the method of D. C. Manning, R. Vavrek, J. M. Stewart, and S. H. Snyder, J. Pharmacol. Exp. Ther., (1986), 237, 504. The tissues used in the binding assay were terminal ileum from male Hartley guinea pigs (150-350 g). After dissection, tissues were placed in 20 vol of ice-cold buffer A (25 mM TES containing 0.2 g/L of 1,10-phenanthroline adjusted of pH 6.8 with ammonium hydroxide) and homogenized using a Ploytron Tissumizer at setting 6 for 15 sec. The homogenate was centrifuged at 50,000×g for 10 min, the supernatant discarded, and the pellet resuspended in ice-cold buffer A by homogenization with the Polytron. Each tissue was homogenized and centrifuged three times. The final pellet was resuspended in buffer A containing bovine serum albumin (1 g/L) and Bacitracin (0.14 g/L) to a final volume of 170 mL/g of the original tissue weight. […] Filters were dissolved in Ready-Safe Fluor (Beckman) for at least 90 min before quantitation by liquid scintillation spectrometry. Kd values were determined using saturation binding and analysis by EBDA (G. A. MacPherson, J. Pharmacol. Methods, (1985), 213), followed by LIGAND (P. J. Munson, D. Rodbard, Anal. Biochem., (1980), 220). Ki values were determined using competitive analysis followed by EBDA and LIGAND. […]

“Bradykinin (RPPGFSPFR; Bradykinin; UniProt P01042 381-389, looked up) [nonapeptide hormone, native agonist]”: the “half life in the systemic circulation” value in data set [1] is listed as “less than 30 seconds”. Moreover, in data set [2], the “destruction on a single passage through the pulmonary circulation” value is 98-99%.
Turning to `N=C(N)NCCC[C@@H](N)C(=O)N[C@@H](CCCNC(=N)N)C(=O)N[C@H]1CSSC[C@@H](C(=O)N[C@@H](CO)C(=O)N2Cc3ccccc3C[C@@H]2C(=O)N2[C@H](C(=O)N[C@@H](CCCNC(=N)N)C(=O)O)C[C@@H]3CCCC[C@@H]32)NC(=O)CNC(=O)[C@@H]2CCCN2C1=O` [drawing 26] (H-[dR]RCPGCS[dTic][Oic]R-OH; disulfide 3-6), in data set [3], the Kb was 251 nM.
With `NC(N)=NCCC[C@@H](N)C(=O)N[C@@H](CCCN=C(N)N)C(=O)N[C@H]1CSSC[C@@H](C(=O)N2Cc3ccccc3C[C@@H]2C(=O)N2[C@H](C(=O)N[C@@H](CCCN=C(N)N)C(=O)O)C[C@@H]3CCCC[C@@H]32)NC(=O)[C@H](Cc2ccccc2)NC(=O)CNC(=O)[C@@H]2CCCN2C1=O` (H-[dR]RCPGFC[dTic][Oic]R-OH; disulfide 3-7), in data set [4], the inhibition constant Ki came to 14.8 ± 0.34 nM.
On the same count and under the same terms, under `N=C(N)NCCC[C@@H](N)C(=O)N[C@@H](CCCNC(=N)N)C(=O)N[C@H]1CSSC[C@@H](C(=O)N[C@@H](CO)C(=O)N2Cc3ccccc3C[C@@H]2C(=O)N2[C@H](C(=O)N[C@@H](CCCNC(=N)N)C(=O)O)C[C@@H]3CCCC[C@@H]32)NC(=O)CNC(=O)[C@@H]2CCCN2C1=O` [drawing 23] (H-[dR]RCPGCS[dTic][Oic]R-OH; disulfide 3-6) stands 1.5 ± 0.1 nM.

Broadly, the Ki is the dissociation constant of the complex between target and ligand, obtained from inhibition or displacement.
